Measured values reported in US10471032B1, “Substituted glutaurine compounds and substituted glutaurine derivatives” (ThermoLife International, LLC, priority 2013, dated 2019).

Columns and labels:
human subject = experiment: Subject-reported effects during administration; type: in vivo; conditions: oral approx. 800 mcg/day
Experimental: (§1) To evaluate the effect of administration of glutaurine on estradiol and thyroid hormone levels in a human subject, approximately 800 micrograms (mcg) per day of glutaurine were administered orally to the subject over a period of about one month. At Day 0 prior to administration of the glutaurine and at Day 4 and Day 28 during administration of the glutaurine blood samples were collected and analyzed for the levels of estradiol, thyroid stimulating hormone (TSH), and the thyroid hormones triiodothyronine (T3) and thyroxine (T4). Total amounts of T3 and T4 were measured in the blood samples.
The subject also reported fat loss as a result of the glutaurine administration.

thyroxine (T4) = experiment: Total T4 level in blood samples during oral administration to a human subject; type: in vivo; conditions: for T4: total T4, blood, one human subject, Day 0 before dosing 8.3
Experimental: as §1

triiodothyronine (T3) = experiment: Total T3 level in blood samples during oral administration to a human subject; type: in vivo; conditions: for T3: total T3, blood, one human subject, Day 0 before dosing 91
Experimental: as §1

estradiol = experiment: Estradiol level in blood samples during oral administration to a human subject; type: in vivo; conditions: for Estradiol: blood, one human subject, Day 0 before dosing 36
Experimental: as §1

[1] = tested on: thyroid stimulating hormone (TSH); experiment: TSH level in blood samples during oral administration to a human subject; type: in vivo; conditions: for TSH: blood, one human subject, Day 0 before dosing 3.01
Experimental: as §1

[2] = tested on: estradiol and total testosterone; conditions: men treated, Taxel et al. (2001); cited from earlier work
[3] = indicative of rising energy expenditure and metabolism
[4] = oral approx. 800 mcg/day for about one month, human subject
[5] = Day 4 of oral approx. 800 mcg/day
[6] = Day 28 of oral approx. 800 mcg/day

NC(CCC(=O)NCCS(=O)(=O)O)C(=O)O (centres unmarked) [glutaurine]
body fat (subject-reported) (human subject): fat loss
body temperature (subject-reported) (human subject; [3]): increased body temperature
sweating (subject-reported) (human subject; [3]): increased sweating
change in T4 levels (thyroxine (T4); [4]): slightly reduced
T4 (thyroxine (T4); [5]): 7.9 µg/dL
T4 (thyroxine (T4); [6]): 7.3 µg/dL
change in T3 levels (triiodothyronine (T3); [4]): consistent increase
T3 (triiodothyronine (T3); [5]): 96 ng/dL
T3 (triiodothyronine (T3); [6]): 109 ng/dL
Estradiol (estradiol; [5]): 32 pg/mL
Estradiol (estradiol; [6]): 30 pg/mL
change in estradiol levels (estradiol; [4]): marked decrease
TSH [1, 5]: 3.28 mIU/L
TSH [1, 6]: 2.74 mIU/L
change in TSH levels [1, 4]: no significant change

CC(C)(C#N)c1cc(Cn2cncn2)cc(C(C)(C)C#N)c1 [anastrozole]
change in estradiol [2]: significant decrease
change in total testosterone [2]: increase
